Results from patent publication US10286032B2, “Pro-angiogenic fragments of prominin-1 and uses thereof” (Children's Medical Center Corporation, priority 2010, dated 2019).

Assays:
endothelial cells [1] = experiment: I125-VEGF binding to endothelial cells in the presence of peptide; format: cell-based
Description: (§1) 10000 cells were incubated in binding buffer containing 20 mM Hepes, 0.1% BSA and I^125-VEGF (12 ng/ml) for 3 h on ice.
(§2) In order to characterize the effect of the peptides on VEGF binding to endothelial and melanoma cells, the cells were incubated with various peptides (720 μg/ml) in the presence of I^125-VEGF (12 ng/ml) (FIG. 2). Peptide #237 increased VEGF binding to endothelial as well to melanoma cells. 10000 cells were incubated in binding buffer containing 20 mM Hepes, 0.1% BSA and I^125-VEGF (12 ng/ml) for 3 h on ice. Following 3 washings, the radioactive levels were determined by gamma counter. An increase of more than 25 times in I^125-VEGF binding was observed when peptide #237 was added to both kinds of cells. The other prominin-1 peptides examined had no effect on VEGF binding to endothelial cells.
Each of these peptides were tested for VEGF binding to endothelial cells and compared to peptide #237 at varying dilutions. The results are indicated herein in FIG. 7.
The inventors also investigated which amino acid residues in peptide #237 are important for the various angiogenic and VEGF related binding activity described herein. To achieve this, the inventors singly changed each of the 12 amino acid residues in peptide #237 to alanine and performed experiments examining the effect of the alanine substitution at various positions on endothelial cell binding to VEGF. A total of 12 alanine substituted peptides were made and tested: Ala-1, Ala-2, Ala-3, Ala-4, Ala-5, Ala-6, Ala-7, Ala-8, Ala-9, Ala-10, Ala-11, Ala-12, (SEQ. ID. NOS. 38-41, 3, 11, 42-47) wherein the number indicate the position where the alanine substitution occurred. In addition, a “flip #237” peptide having the sequence AAVVTTTQRQVRD (SEQ. ID. NO. 22) was also made and studied.

endothelial cells [2] = experiment: Matrigel assay of endothelial cell migration in vivo (FACS of matrigel liberated cells); design: species or system C57bl mice; details: day 6; for endothelial cells among matrigel liberated cells (FACS, CD31): Matrigel with 500 ng VEGF, with or without 180 μg #237
Description: On day 6, animals were sacrificed and fluorescence-activated cell sorting (FACS) analysis was used for determination of the matrigel liberated cells. In order to distinguish the endothelial cells from hematopoietic cells, the cells were incubated with two antibodies CD31-PE and CD45-APC which are specific to endothelial cells and hematopoietic cells respectively.

ear wound = experiment: ear punch wound healing model; format: in vivo, mouse; details: for wound closure versus control (peptide #237): intraperitoneal treatment, C57BL mouse
[3] = test system: ischemic hind limb blood flow; experiment: hind limb ischemia model, intraperitoneal administration (Example 12); format: in vivo, mouse; details: for limb perfusion: intraperitoneally immediately following femoral artery occlusion, within three to six days
Description: Mice were ligated in one of their femoral arteries (the […]) to simulate hind limb ischemia. The blood flow was analyzed by machine for each mouse before and immediately after the procedure to evaluate if the femoral was ligated properly. Blood flow was compared with the non-operated leg by a laser Doppler imager. […] The ischemic limb is seen as the limb on left side in the laser Doppler images.
Representative evaluation of the ischemic (left side of each image) and non-ischemic (right side of each image) hind limbs, immediately after, and on days 4 and 14 after surgery. In FIG. 11, the white areas indicate normal perfusion with normal blood circulation and black areas indicate no blood flow in the ischemic left hind limb. […] Dark shaded areas within the white areas located at the distal ends of the limbs indicate […].
The blood flow of the ischemic hind limb is expressed as the ratio between the perfusion of the ischemic limb and the uninjured limb in FIG. 12.

[4] = test system: cornea neovascularization; experiment: corneal micropocket assay with VEGF pellet; format: in vivo, mouse; details: pellet 160 ng VEGF 165 + 1.3 ug #237; 5 days
Description: Vigorous vessel in-growth from the limbus at 5 days was recorded as a positive response.
In order to evaluate the modulating effect of peptide #237 on the angiogenesis process, a corneal micropocket assay was performed. Two kinds of pellets were created, both containing 160 ng carrier-free recombinant human VEGF 165 (R&D Systems, Minneapolis, Minn.), one of which contains 1.3 ug of #237 peptide. The pellets were implanted into micropockets created in the cornea of two groups of anesthetized mice (n=4). Through the use of standardized slow-release pellets, a predictable angiogenic response is generated over the course of 5 days and then quantified. The area of neovascularization was calculated as vessel area, which is calculated as the product of vessel length measured from the limbus and clock hours around the cornea, using the following equation: vessel area (mm^2)=[clock hours×vessel length (mm)×0.2 mm]. […] The in vivo experiment confirms that the peptide stimulates cell proliferation, and is therefore a good candidate to induce angiogenesis.

B16-F10 melanoma cells = experiment: I125-VEGF binding to melanoma cells in the presence of peptide; format: cell-based; details: peptide 720 μg/ml, I125-VEGF 12 ng/ml, 3 h on ice
Description: as §1, §2

[5] = test system: ear wound neovascularization; experiment: ear wound neovascularization model; format: in vivo, nude mouse; details: matrigel containing 180 μg peptide daily for 5 days; 2.25 mm punch; versus plain matrigel
Description: Microvascular in-growth into damaged tissue is an essential component of the normal healing process. In fact, wound therapy is often aimed at promoting neovascularization. The model consists of wounding the dorsal aspect of the ear of a nude mouse. A circular punch was used to create a standardized wound on a nude mouse ear. Constant diameter of wound is given by the size of the punch (2.25 mm), and the ears were treated daily with plain matrigel (FIG. 6A) or matrigel containing peptide #237 (180 μg) (FIG. 6B) for 5 days. […] In order to evaluate the wound neovascularization, the mice were inoculated by dextran-FITC which specifically labeled the endothelial cells, immediately after anesthetizing them.

[6] = test system: ischemic hind limb blood flow; experiment: hind limb ischemia model, local injection or pump (Example 11); format: in vivo, mouse; details: after 48 h
Description: FIG. 10A are laser doppler images showing the effects of direct injection of either saline or peptide #237 to the ischemic site (800 μg) in a mouse hind limb ischemia model. Mice were ligated in both of their femoral arteries to simulate hind limb ischemia. The blood flow in mice was analyzed by machine for each mouse before and immediately after the procedure to evaluate if the femoral was ligated properly. (Note that amino acid 12 of SEQ. ID. NO: 1 is alanine; this amino acid was substituted with […] in the Ala-12 substitution variant.)
FIG. 10B are laser doppler images showing the effects of injection by pumps of either the saline or peptide #237 to the ischemic site (800 μg) in a mouse hind limb ischemia model. Just the left femoral artery was ligated to simulate hind limb ischemia. Mice from group B were treated systemically by pumps that were implanted to the mouse's back one day prior to the procedure. […] The blood flow was analyzed by machine for each mouse before and immediately after the procedure to evaluate if the femoral was ligated properly. […]
The angiogenic effects of peptide #237 were investigated using the mouse hind limb ischemia model. […] The blood flow was analyzed by Laser Doppler perfusion imagery machine for each mouse before and immediately after the procedure to evaluate if the femoral was ligated properly. […]

## DRVARQTTTVVA [Ala-4]
Endothelial cells [1]
  VEGF binding to endothelial cells over control levels (absence of any peptide): promote VEGF binding to endothelial cells over control levels

## VEGF
Endothelial cells [2]
  endothelial cells among matrigel liberated cells (FACS, CD31): 0.07%

## DRVQQQTTTVVA [#237-Q]
Endothelial cells [1]
  VEGF binding to endothelial cells over control levels (absence of any peptide): promote VEGF binding to endothelial cells over control levels
Ear wound
  wound closure versus control (peptide #237): significantly more wound closure

## DRVQAQTTTVVA [Ala-5]
Endothelial cells [1]
  VEGF binding to endothelial cells over control levels (absence of any peptide): promote VEGF binding to endothelial cells over control levels
Endothelial cells [1]; alanine substitution screen
  ability of endothelial cells to bind VEGF compared to original #237: more than twice

## VQRQTTTVVAGI
Endothelial cells [1]
  VEGF binding to endothelial cells over control levels (absence of any peptide): promote VEGF binding to endothelial cells over control levels

## DRVQRQTTTVVG [Ala-12, glycine substitution at position 12, which is naturally alanine]
Endothelial cells [1]
  VEGF binding to endothelial cells over control levels (absence of any peptide): promote VEGF binding to endothelial cells over control levels

## DRVQMQTTTVVA [#237-M]
Endothelial cells [1]
  VEGF binding to endothelial cells over control levels (absence of any peptide): promote VEGF binding to endothelial cells over control levels
Ear wound
  wound closure versus control (peptide #237): significantly more wound closure

## DRAQRQTTTVVA [Ala-3]
Endothelial cells [1]
  VEGF binding to endothelial cells over control levels (absence of any peptide): promote VEGF binding to endothelial cells over control levels

## DRVQRQATTVVA [Ala-7]
Endothelial cells [1]
  VEGF binding to endothelial cells over control levels (absence of any peptide): promote VEGF binding to endothelial cells over control levels

## DRVQVQTTTVVA [#237-V]
Endothelial cells [1]
  VEGF binding to endothelial cells over control levels (absence of any peptide): promote VEGF binding to endothelial cells over control levels
Ear wound
  wound closure versus control (peptide #237): significantly more wound closure
[3]
  limb perfusion: significantly improves limb perfusion

## DAVQRQTTTVVA [Ala-2]
Endothelial cells [1]
  VEGF binding to endothelial cells over control levels (absence of any peptide): promote VEGF binding to endothelial cells over control levels

## DRVQRATTTVVA [Ala-6]
Endothelial cells [1]
  VEGF binding to endothelial cells over control levels (absence of any peptide): promote VEGF binding to endothelial cells over control levels

## RVQRQTTTVVAG
Endothelial cells [1]
  VEGF binding to endothelial cells over control levels (absence of any peptide): promote VEGF binding to endothelial cells over control levels

## DRVQRQTTTVVA (listed as Homo sapiens) [#237]
Endothelial cells [2]; 180 ug #237 added to the VEGF
  endothelial cells relative to VEGF alone: six times more
Endothelial cells [2]
  endothelial cells among matrigel liberated cells (FACS, CD31): 0.42%
Endothelial cells [1]
  VEGF binding to endothelial cells over control levels (absence of any peptide): promote VEGF binding to endothelial cells over control levels
Endothelial cells [1]; endothelial cells, peptide 720 μg/ml, I125-VEGF 12 ng/ml, 3 h on ice
  increase in I125-VEGF binding: more than 25 times
Ear wound; MATRIGEL containing peptide daily for 14 days, day 14, 1 mm wound
  wound area versus untreated mice: significantly smaller
[3]; days 4 and 14 after surgery
  blood flow recovery compared to saline treated mice (laser Doppler images): increased blood flow recovery
[3]
  limb perfusion: significantly improves limb perfusion
[4]
  increase in vessel density versus pellet without peptide: 53%
B16-F10 melanoma cells
  increase in I125-VEGF binding: more than 25 times
[5]
  neovascularization around the ear wound site: significantly increased the neovascularization
[6]; local injection to the ischemic site (800 ug)
  recovery of the blood flow in the ischemic site: complete recovery of the blood flow
[6]; slow release via pump 0.5 ug/hour
  recovery of the blood flow in the ischemic site: complete recovery of the blood flow
